Key:
[1] = biological target: T1, Cdk1 (Homo sapiens, UniProt P06493); assay: Cdk1 kinase activity assay (histone H1 phosphorylation); type: biochemical; conditions: immunoprecipitate from MCF-7 cells, 20 min
T1 construct: Lysates from asynchronous MCF-7 cells were immunoprecipitated with anti Cdk1 antibody coupled to agarose; endogenous in cells; host or cells: MCF-7 human breast cancer cells (immunoprecipitate)
Method: tsFT210 cells were harvested using the same procedure for cell synchronizing and drug exposure as described above for the G2/M flow cytometric analysis. The protein lysates were analyzed by Western blotting for Cdk1 as described previously (Tamura K, Southwick EC, Kerns J, Rosi K, Carr BI, Wilcox C and Lazo JS (2000) Cdc25 inhibition and cell cycle arrest by a synthetic thioalkyl vitamin K analogue. Cancer Res 60:1317-1325.). The inventors used Cdk1 isolated from human MCF-7 cells to assay for in vitro inhibition of enzyme activity because of available antibodies and convenience. Asynchronous cells grown at 37° C. in 5% CO2 in DMEM containing 10% fetal bovine serum were treated with lysis buffer and harvested as previously described (Vogt A, Wang AS, Johnson CS, Fabisiak JP, Wipf P and Lazo JS (2000) In vivo antitumor activity and induction of insulin-like growth factor-1 resistant apoptosis by SC-ααδ9. J Pharmacol Exptl Therap 292:530-537.). […] Histone H1 was separated from other proteins by SDS-PAGE and analyzed for incorporation of radioactive phosphate with a Molecular Dynamics STORM 860 Phospholmager (Sunnyvale, CA). […]

[2] = system: bovine brain tubulin; assay: GTP-induced tubulin assembly (turbidity); type: biochemical; conditions: 40 μM
Method: Tubulin without microtubule-associated proteins was isolated from fresh bovine brains (Hamel E and Lin CM (1984). Separation of active tubulin and microtubule-associated proteins by ultracentrifugation and isolation of a component causing the formation of microtubule bundles. Biochemistry 23:4173-4184). Inhibition of assembly reactions was carried out as described previously (Verdier-Pinard P, Lai J-Y, Yoo H-D, Yu J, Marquez B, Nagle DG, Nambu M, White JD, Falck JR, Gerwick WH, Day BW and Hamel E (1998) Structure-activity analysis of the interaction of curacin A, the potent colchicine site antimitotic agent, with tubulin and effects of analogs on the growth of MCF-7 breast cancer cells. Mol Pharmacol 53:62-76.).
(§1) The inventors examined the ability of SR-7 to alter tubulin polymerization or depolymerization in vitro. FIG. 28, Panel A. Compounds (predissolved in DMSO) were preincubated with tubulin containing monosodium glutamate at 30 ° C. for 15 min. Samples were cooled to 0 ° C. and GTP was added. Samples were placed in a temperature-controlled multi-cuvette holder of a spectrophotometer held at 0 ° C. Baselines were established and temperature was rapidly raised to 30 ° C. Turbidity development in the cuvettes was measured at 350 nm. FIG. 28, Panel B. Compounds were added to the tubulin plus monosodium glutamate mixture at 0 ° C., placed in the spectrophotometer and temperature was raised to 30 ° C. Addition of 0.4 mM GTP to isolated bovine brain tubulin produced robust polymerization that began to plateau approximately 20 min after microtubule assembly commenced (Panel A).

[3] = system: bovine tubulin; assay: Tubulin hypernucleation without GTP; type: biochemical; conditions: in vitro
Method: as §1

[4] = system: 1 A9, 1 A9/PTX10 and 1 A9/PTX22 cells; assay: Growth inhibition of paclitaxel-sensitive and -resistant 1A9 cells; type: cell-based, human
Method: Two compounds, 24 referred to herein as SR-4 and 27 referred to herein as SR-7, were examined in greater detail as to their effects on biological activity. The proliferation of MCF-7, MDA-MB-231 and SV40 transformed mouse embryonic fibroblasts was measured by a previously described colorimetric assay (Wipf P, Jung J-K, Rodriguez S, Lazo JS Synthesis and biological evaluation of Deoxypreussomerin A and Palmarumycin CP 1 and related naphthoquinone spiroketals. Tetrahedron 57:283-296, 2001 and Vogt A, Rice RL, Settineri CE, Yokokawa F, Yokokawa S, Wipf P and Lazo JS (1998) Disruption of insulin-like growth factor-I signaling and down-regulation of Cdc2 by SC-ααδ9, a novel small molecule antisignaling agent identified in a targeted array library. J Pharmacol Exptl Therap 287:806-813.). Briefly, the inventors seeded 4,000-6,000 cells per well in microtiter plates. […] Plates were incubated for 3 hours in the dark and total cell number was determined by spectrophotometrically at 540 nm as previously described (Vogt A, Rice RL, Settineri CE, Yokokawa F, Yokokawa S, Wipf P and Lazo JS (1998) Disruption of insulin-like growth factor-1 signaling and down-regulation of Cdc2 by SC-ααδ9, a novel small molecule antisignaling agent identified in a targeted array library. J Pharmacol Exptl Therap 287:806-813.). […]

T1 sequence (P06493 whole entry): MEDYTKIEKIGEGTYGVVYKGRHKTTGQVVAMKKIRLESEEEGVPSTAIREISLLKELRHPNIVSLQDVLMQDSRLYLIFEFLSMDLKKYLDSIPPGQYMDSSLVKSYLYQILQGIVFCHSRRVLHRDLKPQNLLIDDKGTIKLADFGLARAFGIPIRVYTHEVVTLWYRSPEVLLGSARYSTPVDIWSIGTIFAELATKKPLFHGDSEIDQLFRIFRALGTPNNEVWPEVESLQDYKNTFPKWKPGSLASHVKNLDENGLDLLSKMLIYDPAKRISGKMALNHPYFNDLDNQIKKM
T1 sequence (P14635 whole entry partner): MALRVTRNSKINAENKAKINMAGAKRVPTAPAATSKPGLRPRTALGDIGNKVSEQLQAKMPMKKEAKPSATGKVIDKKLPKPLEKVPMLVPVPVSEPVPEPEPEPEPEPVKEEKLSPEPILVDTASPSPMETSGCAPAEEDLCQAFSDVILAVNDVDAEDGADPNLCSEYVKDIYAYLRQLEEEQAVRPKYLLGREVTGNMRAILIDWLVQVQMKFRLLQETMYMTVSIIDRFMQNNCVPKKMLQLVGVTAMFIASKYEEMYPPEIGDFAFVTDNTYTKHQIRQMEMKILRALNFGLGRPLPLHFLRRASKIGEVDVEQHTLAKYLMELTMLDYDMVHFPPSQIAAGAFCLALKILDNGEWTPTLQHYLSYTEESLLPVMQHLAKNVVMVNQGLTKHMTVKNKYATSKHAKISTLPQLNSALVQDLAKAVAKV

For O=C1C=CC2(Oc3cccc4cccc(c34)O2)c2cccc(OCc3ccco3)c21 [SR-7, 8-(furan-2-ylmethoxy)-1-oxo-1,4-dihydronaphthalene-4-spiro-2′-naphto [1″,8″-de][1′,3′] dioxin], the “direct inhibition of Cdk1 kinase activity” value [1] was “not directly inhibited”, the “inhibition of tubulin assembly” value [2] was “only moderate inhibition of tubulin assembly” and the hypernucleation of tubulin [3] was “failed in vitro to hypernucleate bovine tubulin”. For the same compound, the “inhibition of paclitaxel-sensitive and -resistant cell growth” value [4] was “almost equal inhibition”.
